From ChEMBL document CHEMBL1145498, “A systematic interaction map of validated kinase inhibitors with Ser/Thr kinases” (Proc Natl Acad Sci U S A, 2007)
Values belong to the compound of their own block, whether it stands above or below them. Calls of active or inactive are those of the source. The calls are words filed in the database; no cut-off is given here.

Key:
[1] = biological target: Mitogen-activated protein kinase 14 (Homo sapiens, UniProt Q16539); assay: Inhibition of SAPK2a/p38-alpha
[2] = biological target: T1, Serine/threonine-protein kinase Chk1 (Homo sapiens, UniProt O14757); assay: Inhibition of Chk1
T1 sequence (O14757 whole entry): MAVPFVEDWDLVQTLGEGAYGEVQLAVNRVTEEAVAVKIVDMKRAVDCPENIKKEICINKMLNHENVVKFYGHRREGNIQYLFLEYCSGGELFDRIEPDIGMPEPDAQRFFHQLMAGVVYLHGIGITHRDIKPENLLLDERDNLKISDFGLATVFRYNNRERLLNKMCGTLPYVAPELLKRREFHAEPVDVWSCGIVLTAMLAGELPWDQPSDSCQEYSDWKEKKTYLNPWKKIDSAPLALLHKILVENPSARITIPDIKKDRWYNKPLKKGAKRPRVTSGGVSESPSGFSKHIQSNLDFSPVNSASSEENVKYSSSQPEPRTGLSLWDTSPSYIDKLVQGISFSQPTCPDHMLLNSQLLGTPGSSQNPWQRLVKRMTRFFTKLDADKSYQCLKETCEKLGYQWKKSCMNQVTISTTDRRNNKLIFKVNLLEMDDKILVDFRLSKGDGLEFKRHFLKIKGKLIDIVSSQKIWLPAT

[3] = biological target: Serine/threonine-protein kinase Chk2 (Homo sapiens, UniProt O96017)
[4] = system: HUVEC; assay: Inhibition of serum-induced proliferation in HUVEC; format: functional, cell-based; conditions: Homo sapiens
[5] = Inhibition of serum-induced proliferation in human NHLF cells; format: functional, cell-based
[6] = Inhibition of JNK
[7] = Inhibition of GSK3
[8] = system: THP-1; assay: Inhibition of LPS-stimulated IL1 production in human THP1 cells; format: functional, cell-based
[9] = system: THP-1; assay: Inhibition of LPS-stimulated TNFalpha production in human THP1 cells; format: functional, cell-based
[10] = biological target: Epidermal growth factor receptor (Homo sapiens, UniProt P00533)
[11] = biological target: Serine/threonine-protein kinase pim-2 (Homo sapiens, UniProt Q9P1W9); assay: Inhibition of PIM2 expressed in Escherichia coli by thermal shift assay
[12] = cells; conditions: Homo sapiens, JeKo-1, 72 h
[13] = biological target: Dual specificity mitogen-activated protein kinase kinase 3 (Homo sapiens, UniProt P46734); assay: Inhibition of MKK3
[14] = biological target: Dual specificity mitogen-activated protein kinase kinase 4 (Homo sapiens, UniProt P45985); assay: Inhibition of MKK4
[15] = Inhibition of MEK
[16] = biological target: T2, Cyclin-dependent kinase 1 (Homo sapiens, UniProt P06493); assay: Inhibition of Cdk1
[17] = biological target: T3, Protein kinase C epsilon type (Homo sapiens, UniProt Q02156); assay: Inhibition of PKCepsilon
T3 sequence (Q02156 whole entry): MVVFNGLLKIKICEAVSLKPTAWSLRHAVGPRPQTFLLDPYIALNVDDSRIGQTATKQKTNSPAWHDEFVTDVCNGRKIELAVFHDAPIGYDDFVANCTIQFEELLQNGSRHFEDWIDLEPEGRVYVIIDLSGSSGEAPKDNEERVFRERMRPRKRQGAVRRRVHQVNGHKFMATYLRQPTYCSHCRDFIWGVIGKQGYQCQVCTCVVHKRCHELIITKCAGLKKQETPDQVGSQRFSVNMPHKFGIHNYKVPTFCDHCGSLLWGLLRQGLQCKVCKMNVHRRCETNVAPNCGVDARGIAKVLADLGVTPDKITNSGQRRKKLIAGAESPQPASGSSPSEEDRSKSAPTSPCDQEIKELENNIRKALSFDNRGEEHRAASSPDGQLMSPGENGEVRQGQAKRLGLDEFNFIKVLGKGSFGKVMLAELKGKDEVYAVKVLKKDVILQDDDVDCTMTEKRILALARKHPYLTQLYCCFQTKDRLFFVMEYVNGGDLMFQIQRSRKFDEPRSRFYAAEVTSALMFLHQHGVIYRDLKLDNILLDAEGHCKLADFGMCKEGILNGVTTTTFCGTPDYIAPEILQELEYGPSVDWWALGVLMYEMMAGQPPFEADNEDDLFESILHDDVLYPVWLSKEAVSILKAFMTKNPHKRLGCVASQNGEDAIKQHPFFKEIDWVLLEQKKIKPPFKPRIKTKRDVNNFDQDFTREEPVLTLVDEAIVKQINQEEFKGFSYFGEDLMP

[18] = biological target: Tyrosine-protein kinase ZAP-70 (Homo sapiens, UniProt P43403); assay: Inhibition of ZAP70
[19] = system: RBL-2H3; assay: Inhibition of FcepsilonRI-mediated 5-HT release in rat RBL2H3 cells; format: functional, cell-based
[20] = biological target: T4, Mitogen-activated protein kinase 1 (Homo sapiens, UniProt P28482); assay: Inhibition of ERK2
[21] = Inhibition of FLT3 ITD mutant
[22] = biological target: Tyrosine-protein kinase ABL1 (Homo sapiens, UniProt P00519); assay: Inhibition of Abl
[23] = biological target: RAC-alpha serine/threonine-protein kinase (Homo sapiens, UniProt P31749); assay: Inhibition of AKT
[24] = biological target: Inhibitor of nuclear factor kappa-B kinase subunit beta (Homo sapiens, UniProt O14920); assay: Inhibition of IKK-beta
[25] = biological target: Protein kinase C (PKC); assay: Inhibition of rat brain PKC
[26] = Inhibition of GTPase activity of transducer
[27] = Inhibition of MAPK
[28] = Binding affinity at PKA
[29] = biological target: Tyrosine-protein kinase Fyn (Homo sapiens, UniProt P06241); assay: Inhibition of Fyn
[30] = Inhibition of diacylglycerol kinase in isolated platelet membrane; format: cell membranes
[31] = biological target: Myosin light chain kinase, smooth muscle (Homo sapiens, UniProt Q15746); assay: Binding affinity at MLCK
[32] = biological target: Mitogen-activated protein kinase kinase kinase 8 (Homo sapiens, UniProt P41279); assay: Inhibition of Tpl2 kinase
[33] = Inhibition of NS3-associated HCV viral helicase activity using RNA substrate; parameters: species or system Hepacivirus hominis
[34] = system: MV4-11; assay: Antiproliferative activity against human MV4-11 cells; format: functional
[35] = biological target: T2, Cyclin-dependent kinase 1; assay: Inhibition of p34cdc2
[36] = Inhibition of p34cdc2/cyclin B
[37] = biological target: Dual specificity mitogen-activated protein kinase kinase 2 (Homo sapiens, UniProt P36507)
[38] = biological target: Tyrosine-protein kinase SYK (Homo sapiens, UniProt P43405); assay: Inhibition of Syk
[39] = biological target: T4, Mitogen-activated protein kinase 1; assay: Binding affinity to ERK2
[40] = system: P19; assay: Induction of differentiation in mouse P19 cells at 1000 nM; format: functional
[41] = Inhibition of IGF1
[42] = not given; remark: listed apart in the source

T4 sequence (P28482 whole entry): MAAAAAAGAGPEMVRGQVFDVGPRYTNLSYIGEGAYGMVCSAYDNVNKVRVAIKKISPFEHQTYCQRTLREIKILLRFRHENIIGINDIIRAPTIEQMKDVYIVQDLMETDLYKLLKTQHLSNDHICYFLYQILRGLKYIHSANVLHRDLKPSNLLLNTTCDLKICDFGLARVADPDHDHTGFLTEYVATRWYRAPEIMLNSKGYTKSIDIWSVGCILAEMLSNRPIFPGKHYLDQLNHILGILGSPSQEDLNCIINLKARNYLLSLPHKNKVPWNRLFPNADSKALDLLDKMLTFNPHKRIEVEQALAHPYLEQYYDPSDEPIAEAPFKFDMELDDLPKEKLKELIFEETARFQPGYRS
T2 sequence (P06493 whole entry): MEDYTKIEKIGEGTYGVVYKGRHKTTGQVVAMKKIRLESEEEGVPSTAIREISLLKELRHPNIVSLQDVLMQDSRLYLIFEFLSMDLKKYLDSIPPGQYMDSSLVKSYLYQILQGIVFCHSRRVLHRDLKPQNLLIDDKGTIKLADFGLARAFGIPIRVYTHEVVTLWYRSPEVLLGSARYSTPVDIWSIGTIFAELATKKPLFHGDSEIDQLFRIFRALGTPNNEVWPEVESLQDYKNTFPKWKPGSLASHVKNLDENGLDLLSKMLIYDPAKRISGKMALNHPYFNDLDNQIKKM
Sequence of Tyrosine-protein kinase ZAP-70 (P43403 whole entry): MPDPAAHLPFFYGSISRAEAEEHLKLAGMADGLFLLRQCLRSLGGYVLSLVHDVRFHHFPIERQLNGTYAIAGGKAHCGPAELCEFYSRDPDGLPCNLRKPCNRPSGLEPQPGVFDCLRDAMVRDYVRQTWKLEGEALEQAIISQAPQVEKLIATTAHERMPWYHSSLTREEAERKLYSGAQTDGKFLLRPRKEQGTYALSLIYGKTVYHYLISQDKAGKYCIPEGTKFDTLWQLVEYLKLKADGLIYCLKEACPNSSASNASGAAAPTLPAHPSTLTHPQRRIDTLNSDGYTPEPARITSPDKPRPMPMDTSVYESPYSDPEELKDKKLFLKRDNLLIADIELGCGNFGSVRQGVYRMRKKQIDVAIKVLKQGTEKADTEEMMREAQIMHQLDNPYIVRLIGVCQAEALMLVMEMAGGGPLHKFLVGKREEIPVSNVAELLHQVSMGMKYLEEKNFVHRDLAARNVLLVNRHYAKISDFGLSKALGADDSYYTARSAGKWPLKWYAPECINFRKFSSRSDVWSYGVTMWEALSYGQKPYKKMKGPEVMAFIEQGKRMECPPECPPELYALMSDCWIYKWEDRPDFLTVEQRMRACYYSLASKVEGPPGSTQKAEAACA
Sequence of Mitogen-activated protein kinase kinase kinase 8 (P41279 whole entry): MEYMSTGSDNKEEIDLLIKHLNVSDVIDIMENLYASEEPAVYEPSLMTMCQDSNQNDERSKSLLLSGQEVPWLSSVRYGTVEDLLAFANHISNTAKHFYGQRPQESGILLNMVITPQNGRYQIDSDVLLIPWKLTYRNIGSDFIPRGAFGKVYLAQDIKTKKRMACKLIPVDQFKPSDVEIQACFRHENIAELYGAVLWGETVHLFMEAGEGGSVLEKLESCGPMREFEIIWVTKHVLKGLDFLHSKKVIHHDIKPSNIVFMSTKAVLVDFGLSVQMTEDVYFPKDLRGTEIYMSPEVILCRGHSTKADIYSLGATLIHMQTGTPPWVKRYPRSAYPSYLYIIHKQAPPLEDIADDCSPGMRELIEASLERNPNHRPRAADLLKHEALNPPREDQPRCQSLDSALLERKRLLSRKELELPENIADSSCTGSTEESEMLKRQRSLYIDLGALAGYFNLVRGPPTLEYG
Sequence of Serine/threonine-protein kinase Chk2 (O96017 whole entry): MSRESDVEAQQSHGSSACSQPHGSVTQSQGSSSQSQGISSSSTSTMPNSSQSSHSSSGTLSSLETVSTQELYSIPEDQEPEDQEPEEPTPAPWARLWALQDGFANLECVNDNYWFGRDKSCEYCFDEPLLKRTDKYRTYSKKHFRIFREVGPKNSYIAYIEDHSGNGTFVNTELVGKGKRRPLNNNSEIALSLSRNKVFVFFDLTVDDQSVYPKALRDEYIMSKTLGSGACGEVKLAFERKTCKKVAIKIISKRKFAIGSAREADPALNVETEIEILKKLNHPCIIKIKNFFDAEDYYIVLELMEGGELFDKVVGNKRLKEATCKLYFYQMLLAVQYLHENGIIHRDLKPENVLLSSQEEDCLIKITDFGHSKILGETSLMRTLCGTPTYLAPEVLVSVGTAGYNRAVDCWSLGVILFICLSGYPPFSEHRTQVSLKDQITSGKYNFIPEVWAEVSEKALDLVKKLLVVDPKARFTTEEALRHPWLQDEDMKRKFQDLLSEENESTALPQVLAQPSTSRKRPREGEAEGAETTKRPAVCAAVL
Sequence of Dual specificity mitogen-activated protein kinase kinase 4 (P45985 whole entry): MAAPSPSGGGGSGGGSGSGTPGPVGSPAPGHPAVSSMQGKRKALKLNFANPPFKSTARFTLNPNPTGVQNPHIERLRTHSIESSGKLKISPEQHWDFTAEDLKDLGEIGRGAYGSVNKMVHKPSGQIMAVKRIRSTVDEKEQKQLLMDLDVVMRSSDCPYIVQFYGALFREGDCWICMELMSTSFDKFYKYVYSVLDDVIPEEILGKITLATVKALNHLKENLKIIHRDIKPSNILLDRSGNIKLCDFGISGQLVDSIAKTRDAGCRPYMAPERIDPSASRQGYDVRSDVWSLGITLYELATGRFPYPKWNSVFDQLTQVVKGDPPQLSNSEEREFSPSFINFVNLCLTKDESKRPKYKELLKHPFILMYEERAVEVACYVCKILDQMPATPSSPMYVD
Sequence of Epidermal growth factor receptor (P00533 whole entry): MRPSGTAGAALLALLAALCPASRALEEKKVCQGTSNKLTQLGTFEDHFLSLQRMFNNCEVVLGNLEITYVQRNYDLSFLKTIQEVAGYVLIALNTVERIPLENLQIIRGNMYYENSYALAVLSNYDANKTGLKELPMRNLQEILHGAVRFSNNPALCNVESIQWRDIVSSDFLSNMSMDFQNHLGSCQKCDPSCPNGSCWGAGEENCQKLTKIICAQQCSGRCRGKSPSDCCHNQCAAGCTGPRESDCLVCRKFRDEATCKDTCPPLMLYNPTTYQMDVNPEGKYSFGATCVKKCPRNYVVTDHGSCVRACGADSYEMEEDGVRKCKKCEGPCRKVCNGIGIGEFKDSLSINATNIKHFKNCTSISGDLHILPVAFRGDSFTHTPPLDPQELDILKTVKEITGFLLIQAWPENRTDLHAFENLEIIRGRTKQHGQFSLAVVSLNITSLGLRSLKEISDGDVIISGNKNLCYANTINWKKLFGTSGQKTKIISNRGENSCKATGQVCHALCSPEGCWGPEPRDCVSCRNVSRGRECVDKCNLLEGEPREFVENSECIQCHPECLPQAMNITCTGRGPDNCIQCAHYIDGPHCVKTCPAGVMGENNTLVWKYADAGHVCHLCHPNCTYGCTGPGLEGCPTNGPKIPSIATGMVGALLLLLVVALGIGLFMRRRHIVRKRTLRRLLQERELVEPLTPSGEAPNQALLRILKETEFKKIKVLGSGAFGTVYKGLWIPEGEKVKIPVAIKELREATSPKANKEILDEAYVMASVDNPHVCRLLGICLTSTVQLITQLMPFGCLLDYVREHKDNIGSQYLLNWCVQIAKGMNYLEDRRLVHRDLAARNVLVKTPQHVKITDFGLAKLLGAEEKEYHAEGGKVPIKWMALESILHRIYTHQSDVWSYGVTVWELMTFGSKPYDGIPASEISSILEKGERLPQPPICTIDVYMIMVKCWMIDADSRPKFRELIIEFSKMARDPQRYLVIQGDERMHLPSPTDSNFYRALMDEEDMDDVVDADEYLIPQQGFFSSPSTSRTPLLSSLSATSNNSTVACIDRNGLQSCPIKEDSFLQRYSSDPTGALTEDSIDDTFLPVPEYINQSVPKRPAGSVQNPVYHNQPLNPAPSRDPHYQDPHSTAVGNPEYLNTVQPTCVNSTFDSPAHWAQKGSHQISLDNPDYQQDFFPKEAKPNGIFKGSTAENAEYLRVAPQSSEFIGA
Sequence of Dual specificity mitogen-activated protein kinase kinase 3 (P46734 whole entry): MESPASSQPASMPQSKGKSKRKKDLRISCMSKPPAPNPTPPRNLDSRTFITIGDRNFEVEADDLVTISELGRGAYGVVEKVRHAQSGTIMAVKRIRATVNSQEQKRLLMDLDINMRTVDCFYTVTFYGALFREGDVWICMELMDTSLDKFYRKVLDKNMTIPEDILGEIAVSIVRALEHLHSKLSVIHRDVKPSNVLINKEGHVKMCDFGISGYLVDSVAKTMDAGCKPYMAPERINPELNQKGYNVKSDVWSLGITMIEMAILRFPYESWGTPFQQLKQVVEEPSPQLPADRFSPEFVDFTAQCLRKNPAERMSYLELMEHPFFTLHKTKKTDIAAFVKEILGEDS
Sequence of Inhibitor of nuclear factor kappa-B kinase subunit beta (O14920 whole entry): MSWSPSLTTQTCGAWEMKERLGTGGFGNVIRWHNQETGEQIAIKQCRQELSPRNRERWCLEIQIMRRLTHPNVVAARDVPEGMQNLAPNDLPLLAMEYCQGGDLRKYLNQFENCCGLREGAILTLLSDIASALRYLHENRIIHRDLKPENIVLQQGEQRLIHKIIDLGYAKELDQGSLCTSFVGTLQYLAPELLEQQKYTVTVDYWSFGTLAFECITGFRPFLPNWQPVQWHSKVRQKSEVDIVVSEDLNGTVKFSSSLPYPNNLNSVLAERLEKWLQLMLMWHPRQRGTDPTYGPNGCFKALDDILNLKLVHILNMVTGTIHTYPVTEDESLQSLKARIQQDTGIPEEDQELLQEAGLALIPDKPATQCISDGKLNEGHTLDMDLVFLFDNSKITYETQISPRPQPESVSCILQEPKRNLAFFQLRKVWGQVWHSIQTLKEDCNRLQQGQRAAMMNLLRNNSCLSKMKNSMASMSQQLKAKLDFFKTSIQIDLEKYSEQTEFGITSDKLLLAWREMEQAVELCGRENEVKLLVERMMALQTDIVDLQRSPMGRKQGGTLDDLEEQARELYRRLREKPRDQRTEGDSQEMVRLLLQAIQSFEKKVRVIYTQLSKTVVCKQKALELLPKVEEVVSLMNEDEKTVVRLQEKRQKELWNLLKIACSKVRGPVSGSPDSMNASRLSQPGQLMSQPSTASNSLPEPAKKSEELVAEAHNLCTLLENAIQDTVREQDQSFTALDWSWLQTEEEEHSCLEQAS

IC50 [1]: 2000 nM
Structure (SMILES): Cc1ccc(NC(=O)c2cccc(N(C)C)c2)cc1NC(=O)c1ccc(O)cc1

IC50 [2]: 100 nM | IC50 [3]: 3 µM
Structure (SMILES): O=C1NC(=O)c2c1c1c3ccccc3[nH]c1n1cncc21 [ISOGRANULATIMIDE]

IC50 [16]: > 10000 nM
Structure (SMILES): COc1cc2c(cc1OC)-c1n[nH]c(Nc3cccc(F)c3)c1C2

Ki [7]: 24 nM
Structure (SMILES): Cc1cc(Nc2nc(-c3ccccc3)nc3ccccc23)n[nH]1

IC50 [20]: ≥ 10 µM | IC50 [21]: 300 nM | IC50 [22]: ≥ 10 µM | IC50 [23]: ≥ 10 µM | IC50 [15]: ≥ 10000 nM
Structure (SMILES): c1ccc(-c2n[nH]c3c2oc2ccccc23)cc1

IC50 [10]: > 20 µM
Structure (SMILES): CCN(CC)CCNC(=O)c1c(C)[nH]c(/C=C2\C(=O)Nc3ccc(Cl)cc32)c1C [SU-11652]

IC50 [24]: > 10 µM
Structure (SMILES): COc1cc(O)c2c(c1)oc(=O)c1c3cc(O)c(O)cc3oc21 [WEDELOLACTONE]

IC50 [17]: 39 nM | IC50 [25]: 15 nM
Structure (SMILES): Cl.Cn1cc(C2=C(c3ccc4cc5n(c4c3)CCC(CN)C5)C(=O)NC2=O)c2ccccc21 (stereo unspecified)

IC50 [27]: > 1250 µM
Structure (SMILES): COc1ccc(CNc2nc(N(CCO)CCO)nc3c2ncn3C(C)C)cc1

Ki [28]: 32 µM
Structure (SMILES): O=S(=O)(c1cccc2c(Cl)cccc12)N1CCCNCC1

IC50 [30]: 300 nM
Structure (SMILES): O=c1c2ccccc2[nH]c(=S)n1CCN1CCC(=C(c2ccc(F)cc2)c2ccc(F)cc2)CC1 [DIACYLGLYCEROL KINASE INHIBITOR II]

IC50 [32]: 50 nM
Structure (SMILES): CN(c1cccnc1)c1cc2c(Nc3ccc(F)c(Cl)c3)c(C#N)cnc2cn1

IC50 [36]: 300 µM
Structure (SMILES): CCOc1cc2ncnc(Nc3cccc(Br)c3)c2cc1OCC

IC50 [30]: 2800 nM
Structure (SMILES): Cc1nc2sccn2c(=O)c1CCN1CCC(=C(c2ccccc2)c2ccc(F)cc2)CC1

IC50 [27]: 25 µM
Structure (SMILES): Cn1cnc2c(NCc3ccccc3)nc(NCCO)nc21 [OLOMOUCINE]

IC50 [41]: > 100 µM
Structure (SMILES): CCOC(=O)c1c(C)[nH]c(/C=C2\C(=O)Nc3ccccc32)c1C

Activity: Active | Activity [42]: Active
Structure (SMILES): CCOC(=O)c1cnc2oc3ccc(O)cc3c2c1-c1ccccc1

Second part, the compound before the results:

Structure (SMILES): CN1CCc2[nH]c(=S)c(C#N)c(-c3cccs3)c2C1
IC50 [4]: < 8 µM | IC50 [5]: < 8 µM | IC50 [2]: 1400 nM

Structure (SMILES): CCCCc1c(-c2ccc(O)cc2)[nH]c2nccnc12 [ALOISINE A]
IC50 [6]: 3000 nM | IC50 [7]: 500 nM

Structure (SMILES): COc1nccc(-c2c(-c3ccc(F)cc3)ncn2[C@H]2CC[C@H](O)CC2)n1
IC50 [8]: 120 nM | IC50 [9]: 120 nM

Structure (SMILES): Cc1cc(C=C2C(=O)C=CC2=O)cc(C)c1O
IC50 [10]: 440 µM

Structure (SMILES): CN(C)C[C@@H]1CCn2cc(c3ccccc32)C2=C(C(=O)NC2=O)c2cn(c3ccccc23)CCO1 [RUBOXISTAURIN]
IC50 [11]: > 20 µM

Structure (SMILES): CC[C@H](CO)Nc1nc(NCc2ccccc2)c2ncn(C(C)C)c2n1 [SELICICLIB]
IC50 [12]: 25 µM

Structure (SMILES): C=CNC#N
IC50 [13]: > 1000 nM | IC50 [14]: > 1 µM | IC50 [15]: 12 nM

Structure (SMILES): NCCNc1ncc(C(N)=O)c(Nc2cccc(C(F)(F)F)c2)n1
IC50 [17]: 5100 nM | IC50 [18]: 11.2 µM | IC50 [19]: 460 nM

Structure (SMILES): NC1=N/C(=C2/CCNC(=O)c3[nH]ccc32)C(=O)N1 [DEBROMOHYMENIALDISINE]
IC50 [2]: 3000 nM | IC50 [3]: 3.5 µM

Structure (SMILES): COc1ccc2c(c[n+](C)c3c4cc5c(cc4ccc23)OCO5)c1OC [CHELERYTHRINE CHLORIDE]
IC50 [17]: 24 nM

Structure (SMILES): N#CC(C#N)=Cc1ccc(O)c(O)c1 [TYRPHOSTIN 23]
IC50 [26]: 10 µM

Structure (SMILES): CN(C)S(=O)(=O)c1ccc2c(c1)/C(=C/c1cc3c([nH]1)CCCC3)C(=O)N2
IC50 [29]: 170 nM

Structure (SMILES): N=C(N)NCCNS(=O)(=O)c1cccc2cnccc12
Kd [20]: 5 µM | Ki [28]: 2.3 µM | Ki [31]: 150 µM

Structure (SMILES): Brc1c(Br)c(Br)c2[nH]nnc2c1Br [TETRABROMOBENZOTRIAZOLE]
IC50 [33]: 60 µM

Structure (SMILES): O=C1C(Cl)=C(N2C(=O)CCC2=O)C(=O)c2ccccc21
IC50 [32]: 50 nM

Structure (SMILES): O=C1Nc2ccc(S(=O)(=O)O)cc2/C1=C1/Nc2ccccc2/C1=N\O
IC50 [16]: 5 nM

Structure (SMILES): C[S+]([O-])c1ccc(-c2nc(-c3ccc(F)cc3)c(-c3ccncc3)[nH]2)cc1 (stereo unspecified) [SB-203580]
IC50 [8]: 50 nM | IC50 [9]: 50 nM

Structure (SMILES): COc1ccc(Cl)cc1NC(=O)Nc1cc(C)nc2ccccc12
Activity [34]: 15 µM

Structure (SMILES): COc1cc(OC)c(/C=C2\C(=O)Nc3ccccc32)c(OC)c1
IC50 [35]: > 100000 nM

Structure (SMILES): CC(C)(C)n1nc(-c2ccc(Cl)cc2)c2c(N)ncnc21
IC50 [18]: > 100 µM

Structure (SMILES): N#C/C(=C(/N)Sc1ccc(N)cc1)c1ccccc1C(F)(F)F
IC50 [37]: 220 nM | IC50 [14]: > 10 µM | IC50 [6]: > 10000 nM | IC50 [33]: 0.18 µM

Structure (SMILES): CN(C)c1ncnc2nc[nH]c12 [DIMETHYLADENINE]
IC50 [36]: 300 µM

Structure (SMILES): O=C(Nc1cccc(Nc2nccc(Nc3cccc(C(F)(F)F)c3)n2)c1)C1CC1 [ANILINOPYRIMIDINE1]
IC50 [38]: 887 nM

Structure (SMILES): CCOc1ccc(/C=C2/SC(=O)N(CCN)C2=O)cc1 [HIAZOLIDINEDIONE1]
Kd [39]: 5 µM

Structure (SMILES): O=C1Nc2ccccc2/C1=C\c1ccc[nH]1
IC50 [38]: 14 nM

Structure (SMILES): Nc1cccc(-c2cc3c(Oc4cccc(O)c4)ncnc3[nH]2)c1
Activity [40]: 30%

Structure (SMILES): O=C1NC(=O)c2c1c1c3ccccc3n3c1c1c2c2ccccc2n1C1CCC3O1
IC50 [35]: 250 nM
